Data as given in patent US7589104B2, “Tricyclic-bridged piperidinyline derivatives as §-opioid modulators” (Janssen Pharmaceutica NV, priority 2004, dated 2009).
Like-named read-outs stand apart in the source and are kept apart here.

Assays:
delta opioid receptor [1] = molecular target: T1, delta opioid receptor (Rattus norvegicus, UniProt P33533); experiment: Rat Brain Delta Opioid Receptor Binding Assay
T1 construct: from tissue; host or cells: forebrain of male Wistar rats (Charles River)

mu opioid receptor = molecular target: T2, mu opioid receptor (Rattus norvegicus, UniProt P33535); experiment: Rat Brain Mu Opioid Receptor Binding Assay
T2 construct: Following incubation with the mu selective peptide ligand, ˜0.8 nM [^3H]DAMGO; from tissue; host or cells: forebrain of male Wistar rats (Charles River)
T2 sequence (P33535 whole entry): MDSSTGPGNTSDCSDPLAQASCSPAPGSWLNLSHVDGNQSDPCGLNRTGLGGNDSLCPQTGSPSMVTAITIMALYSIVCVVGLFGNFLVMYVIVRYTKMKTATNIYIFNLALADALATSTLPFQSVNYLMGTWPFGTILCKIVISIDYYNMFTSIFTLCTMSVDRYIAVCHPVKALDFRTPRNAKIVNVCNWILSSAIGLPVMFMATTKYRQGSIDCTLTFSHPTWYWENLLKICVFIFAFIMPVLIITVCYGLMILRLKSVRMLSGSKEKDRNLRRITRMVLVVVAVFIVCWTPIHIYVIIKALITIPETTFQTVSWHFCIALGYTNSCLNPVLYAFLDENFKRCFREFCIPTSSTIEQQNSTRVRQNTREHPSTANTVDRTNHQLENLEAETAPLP

delta opioid receptor [2] = molecular target: T3, delta opioid receptor (Mus musculus, UniProt P32300); experiment: [35S]GTPγS Binding Assay in NG108-15 Cell Membranes (Delta Opioid); assay type: biochemical; conditions: for delta GTPgS Rel Eff: relative efficacy
T3 construct: NG108-15 cell membranes were purchased from Applied Cell Sciences (Rockville, Md.); host or cells: NG108-15 cell membranes (purchased)
T3 sequence (P32300 whole entry): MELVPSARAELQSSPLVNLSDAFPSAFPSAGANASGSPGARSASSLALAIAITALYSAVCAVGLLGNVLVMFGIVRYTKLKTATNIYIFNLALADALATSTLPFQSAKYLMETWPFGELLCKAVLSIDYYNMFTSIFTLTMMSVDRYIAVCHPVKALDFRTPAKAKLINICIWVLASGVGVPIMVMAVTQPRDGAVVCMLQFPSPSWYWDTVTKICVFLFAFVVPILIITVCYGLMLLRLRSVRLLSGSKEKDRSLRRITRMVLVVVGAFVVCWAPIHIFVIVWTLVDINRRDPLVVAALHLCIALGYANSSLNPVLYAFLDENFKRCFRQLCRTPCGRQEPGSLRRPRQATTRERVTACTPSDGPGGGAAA
Description: Methods: NG108-15 cell membranes were purchased from Applied Cell Sciences (Rockville, Md.). 8 mg/mL of membrane protein suspended in 10 mM TRIS-HCl pH 7.2, 2 mM EDTA, 10% sucrose. Membranes were maintained at 4-8° C. A 1 mL volume of membranes was added into 10 mL cold binding assay buffer. The assay buffer contained 50 mM Tris, pH 7.6, 5 mM MgCl2, 100 mM NaCl, 1 mM DTT and 1 mM EGTA. The membrane suspension was homogenized twice with a Polytron, and centrifuged at 3000 rpm for 10 min. The supernatant was then centrifuged at 18,000 rpm for 20 min. Ten mL assay buffer was added into the pellet containing tube. The pellet and buffer were mixed with a Polytron.
Incubation procedure: The pellet membranes (75 μg/mL) were preincubated with SPA (10 mg/mL) at 25° C. for 45 min in the assay buffer. […] GTPγS in the same Tris buffer containing 100 μM GDP in total volume of 200 μL. Increasing concentrations of receptor agonists were used to stimulate [35S]- GTPγS binding. The basal binding was tested in the absence of agonists and non-specific binding was tested in the presence of 10 μM unlabeled GTPγS. The data were analyzed on a Packard Top Count.
% of Basal=(stimulated−non specific)*100/(basal−non specific). EC50 values were calculated using GraphPad Prism.

[3] = rat forebrain membranes, [3H]DAMGO, read-out: mu (Ki)
[4] = NG108-15 cell membranes, stimulation of [35S]GTPγS binding, read-out: delta GTPgS EC50

T1 sequence (P33533 whole entry): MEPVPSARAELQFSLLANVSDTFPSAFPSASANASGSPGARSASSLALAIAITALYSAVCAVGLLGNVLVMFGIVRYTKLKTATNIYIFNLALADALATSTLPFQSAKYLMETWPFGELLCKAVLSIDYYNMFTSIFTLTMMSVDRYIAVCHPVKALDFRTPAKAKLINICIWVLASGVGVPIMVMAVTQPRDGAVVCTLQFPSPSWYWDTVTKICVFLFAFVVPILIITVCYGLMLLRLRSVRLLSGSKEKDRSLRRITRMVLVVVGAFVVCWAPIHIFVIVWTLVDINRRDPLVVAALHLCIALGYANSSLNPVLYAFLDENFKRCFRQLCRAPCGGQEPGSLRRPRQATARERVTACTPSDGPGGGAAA

Molecule | Ki (delta opioid receptor [1]) [µM] | Ki (mu opioid receptor) [µM] | EC50 (delta opioid receptor [2]) [µM] | delta GTPgS Rel Eff (delta opioid receptor [2]; NG108-15 cell membranes) | Ki (mu opioid receptor; [3]) [µM] | EC50 (delta opioid receptor [2]; [4]) [µM] | Ki (delta opioid receptor [1]; rat forebrain membranes, [3H]DPDPE or [3H]naltrindole, read-out: delta (Ki)) [µM]
CCN(CC)C(=O)c1ccc2c(c1)Oc1c(O)cccc1C2C1CC2CCC(C1)N2Cc1ccoc1 (stereo not drawn) [Compound 9c, 9-(8-Furan-3-ylmethyl-8-aza-bicyclo[3.2.1]oct-3-yl)-5-hydroxy-9H-xanthene-3-carboxylic acid diethylamide] | 0.00073 | 0.073 | 0.0046 | 1.02 | – | – | –
CCN(CC)C(=O)c1ccc2c(c1)Oc1ccccc1C2C1CC2CCC(C1)N2Cc1ccccn1 (stereo not drawn) [Compound 15a, 9-(8-Pyridin-2-ylmethyl-8-aza-bicyclo[3.2.1]oct-3-yl)-9H-xanthene-3-carboxylic acid diethylamide] | 0.0111 | – | – | – | 1.41 | 0.155 | –
CCN(CC)C(=O)c1ccc2c(c1)Oc1c(OC)cccc1C2C1CC2CCC(C1)N2 (stereo not drawn) [Compound 7c, 9-(8-Aza-bicyclo[3.2.1]oct-3-yl)-5-methoxy-9H-xanthene-3-carboxylic acid diethylamide] | 0.0031 | 0.463 | 0.0292 | 0.80 | – | – | –
9-(8-Furan-3-ylmethyl-8-aza-bicyclo[3.2.1]oct-3-ylidene)-9H-xanthene-3-carboxylic acid diethylamide [Compound 10a] | – | – | – | 0.75 | 0.546 | 0.0211 | 0.0123
CCN(CC)C(=O)c1ccc2c(c1)Oc1c(O)cccc1C2C1CC2CCC(C1)N2Cc1ncc[nH]1 (stereo not drawn) [Compound 10c, 5-Hydroxy-9-[8-(1H-imidazol-2-ylmethyl)-8-aza-bicyclo[3.2.1]oct-3-yl]-9H-xanthene-3-carboxylic acid diethylamide] | 0.00032 | 0.07 | 0.0064 | 0.94 | – | – | –
CCN(CC)C(=O)c1ccc2c(c1)Oc1c(O)cccc1C2C1CC2CCC(C1)N2 (stereo not drawn) [Compound 8c, 9-(8-Aza-bicyclo[3.2.1]oct-3-yl)-5-hydroxy-9H-xanthene-3-carboxylic acid diethylamide] | 0.00129 | 0.075 | 0.005 | 0.85 | – | – | –
CCN(CC)C(=O)c1ccc2c(c1)Oc1ccccc1C2C1CC2CCC(C1)N2Cc1cccs1 (stereo not drawn) [Compound 14a, 9-(8-Thiophen-2-ylmethyl-8-aza-bicyclo[3.2.1]oct-3-yl)-9H-xanthene-3-carboxylic acid diethylamide] | 0.0187 | 1.65 | 0.0969 | 0.65 | – | – | –
CCN(CC)C(=O)c1ccc2c(c1)Oc1ccccc1C2C1CC2CCC(C1)N2Cc1ccccc1 (stereo not drawn) [Compound 11a, 9-(8-Benzyl-8-aza-bicyclo[3.2.1]oct-3-yl)-9H-xanthene-3-carboxylic acid diethylamide] | 0.0199 | 1.12 | 0.118 | 0.78 | – | – | –
c1ccc2c(c1)Oc1cc(-c3nnn[nH]3)ccc1C2C1CC2CCC(C1)N2 (stereo not drawn) [Compound 5j, 3-[3-(1H-Tetrazol-5-yl)-9H-xanthen-9-yl]-8-aza-bicyclo[3.2.1]octane] | 0.477 | 4.78 | – | – | – | – | –
